# Source: ChEMBL document CHEMBL3885881, “DrugMatrix”
# Species on record: Rattus norvegicus
# Assay: DrugMatrix - Regimen: Daily Repeat
# Assay type: toxicity, organism-based, Sprague-Dawley
# Design: regimen Daily Repeat, gender Male, age 6-8 weeks
# Conditions: in vivo, po, route oral GAVAGE, vehicle .5 % CMC; for BASOPHIL / EOSINOPHIL / ERYTHROCYTE COUNT / HEMATOCRIT / HEMOGLOBIN / LEUKOCYTE COUNT / LYMPHOCYTE / MEAN CORPUSCULAR HEMOGLOBIN / MEAN CORPUSCULAR HEMOGLOBIN CONCENTRATION / MEAN CORPUSCULAR VOLUME / MONOCYTE / NEUTROPHIL / PLATELET COUNT: tissue Blood; for ALANINE AMINOTRANSFERASE / ALBUMIN / ALKALINE PHOSPHATASE / ASPARTATE AMINOTRANSFERASE / BLOOD UREA NITROGEN / CHLORIDE / CHOLESTEROL / CREATINE PHOSPHOKINASE / CREATININE / GLUCOSE / PHOSPHORUS / POTASSIUM / SODIUM / TOTAL PROTEIN: tissue Plasma
# [1] = 0 mg/kg, 72 h, dose level Control, time 3 day
# [2] = 0 mg/kg, 120 h, dose level Control, time 5 day
# [3] = 50 mg/kg, 72 h, dose level Low, time 3 day
# [4] = 50 mg/kg, 120 h, dose level Low, time 5 day
# [5] = 2000 mg/kg, 72 h, dose level High, time 3 day
# [6] = 2000 mg/kg, 120 h, dose level High, time 5 day
structure (smiles),measurement,setting,value
NC1CCN(c2nc3c(cc2F)c(=O)c(C(=O)O)cn3-c2ccc(F)cc2F)C1 (configuration not stated) [TOSUFLOXACIN],BASOPHIL,[1],0%
same,EOSINOPHIL,[1],0.4%
same,ERYTHROCYTE COUNT,[1],6.43 x10E6/uL
same,HEMATOCRIT,[1],37.36%
same,HEMOGLOBIN,[1],13.98 G/DL
same,LEUKOCYTE COUNT,[1],13 x10E3/uL
same,LYMPHOCYTE,[1],81.4%
same,MEAN CORPUSCULAR HEMOGLOBIN,[1],21.9 pg
same,MEAN CORPUSCULAR HEMOGLOBIN CONCENTRATION,[1],37.4 G/DL
same,MEAN CORPUSCULAR VOLUME,[1],58.52 fL
same,MONOCYTE,[1],0.4%
same,NEUTROPHIL,[1],18%
same,PLATELET COUNT,[1],1386 x10E3/uL
same,ALANINE AMINOTRANSFERASE,[1],39.33 u/L
same,ALBUMIN,[1],3.57 G/DL
same,ALKALINE PHOSPHATASE,[1],283.83 u/L
same,ASPARTATE AMINOTRANSFERASE,[1],69.5 u/L
same,BLOOD UREA NITROGEN,[1],14.83 mg/dL
same,CHLORIDE,[1],107.33 MEQ/L
same,CHOLESTEROL,[1],75.17 mg/dL
same,CREATINE PHOSPHOKINASE,[1],107.67 u/L
same,CREATININE,[1],0.48 mg/dL
same,GLUCOSE,[1],172.5 mg/dL
same,PHOSPHORUS,[1],10.48 mg/dL
same,POTASSIUM,[1],6.9 MEQ/L
same,SODIUM,[1],152.33 MEQ/L
same,TOTAL PROTEIN,[1],5.9 G/DL
same,BASOPHIL,[2],0%
same,EOSINOPHIL,[2],0.4%
same,ERYTHROCYTE COUNT,[2],6.96 x10E6/uL
same,HEMATOCRIT,[2],41.12%
same,HEMOGLOBIN,[2],15.24 G/DL
same,LEUKOCYTE COUNT,[2],11.06 x10E3/uL
same,LYMPHOCYTE,[2],88.6%
same,MEAN CORPUSCULAR HEMOGLOBIN,[2],21.96 pg
same,MEAN CORPUSCULAR HEMOGLOBIN CONCENTRATION,[2],37.1 G/DL
same,MEAN CORPUSCULAR VOLUME,[2],59.12 fL
same,MONOCYTE,[2],0.2%
same,NEUTROPHIL,[2],10.8%
same,PLATELET COUNT,[2],1155.8 x10E3/uL
same,ALANINE AMINOTRANSFERASE,[2],36.33 u/L
same,ALBUMIN,[2],3.72 G/DL
same,ALKALINE PHOSPHATASE,[2],340.33 u/L
same,ASPARTATE AMINOTRANSFERASE,[2],68.33 u/L
same,BLOOD UREA NITROGEN,[2],15 mg/dL
same,CHLORIDE,[2],108.17 MEQ/L
same,CHOLESTEROL,[2],74.67 mg/dL
same,CREATINE PHOSPHOKINASE,[2],110.67 u/L
same,CREATININE,[2],0.47 mg/dL
same,GLUCOSE,[2],171.33 mg/dL
same,PHOSPHORUS,[2],10.05 mg/dL
same,POTASSIUM,[2],6.7 MEQ/L
same,SODIUM,[2],155.5 MEQ/L
same,TOTAL PROTEIN,[2],6.33 G/DL
same,BASOPHIL,[3],0%
same,EOSINOPHIL,[3],0%
same,ERYTHROCYTE COUNT,[3],6.96 x10E6/uL
same,HEMATOCRIT,[3],39.2%
same,HEMOGLOBIN,[3],14.2 G/DL
same,LEUKOCYTE COUNT,[3],12.93 x10E3/uL
same,LYMPHOCYTE,[3],90%
same,MEAN CORPUSCULAR HEMOGLOBIN,[3],20.4 pg
same,MEAN CORPUSCULAR HEMOGLOBIN CONCENTRATION,[3],36.27 G/DL
same,MEAN CORPUSCULAR VOLUME,[3],56.3 fL
same,MONOCYTE,[3],0%
same,NEUTROPHIL,[3],10%
same,PLATELET COUNT,[3],1074.33 x10E3/uL
same,ALANINE AMINOTRANSFERASE,[3],36.67 u/L
same,ALBUMIN,[3],3.4 G/DL
same,ALKALINE PHOSPHATASE,[3],240 u/L
same,ASPARTATE AMINOTRANSFERASE,[3],66.33 u/L
same,BLOOD UREA NITROGEN,[3],13 mg/dL
same,CHLORIDE,[3],106.33 MEQ/L
same,CHOLESTEROL,[3],63 mg/dL
same,CREATINE PHOSPHOKINASE,[3],121.33 u/L
same,CREATININE,[3],0.53 mg/dL
same,GLUCOSE,[3],176.67 mg/dL
same,PHOSPHORUS,[3],10.7 mg/dL
same,POTASSIUM,[3],6.8 MEQ/L
same,SODIUM,[3],151.33 MEQ/L
same,TOTAL PROTEIN,[3],5.6 G/DL
same,BASOPHIL,[4],0%
same,EOSINOPHIL,[4],0%
same,ERYTHROCYTE COUNT,[4],6.08 x10E6/uL
same,HEMATOCRIT,[4],34.23%
same,HEMOGLOBIN,[4],12.7 G/DL
same,LEUKOCYTE COUNT,[4],19.4 x10E3/uL
same,LYMPHOCYTE,[4],93.33%
same,MEAN CORPUSCULAR HEMOGLOBIN,[4],21 pg
same,MEAN CORPUSCULAR HEMOGLOBIN CONCENTRATION,[4],37.13 G/DL
same,MEAN CORPUSCULAR VOLUME,[4],56.57 fL
same,MONOCYTE,[4],0%
same,NEUTROPHIL,[4],6.67%
same,PLATELET COUNT,[4],1222.33 x10E3/uL
same,ALANINE AMINOTRANSFERASE,[4],34 u/L
same,ALBUMIN,[4],3.43 G/DL
same,ALKALINE PHOSPHATASE,[4],218.33 u/L
same,ASPARTATE AMINOTRANSFERASE,[4],56.33 u/L
same,BLOOD UREA NITROGEN,[4],11 mg/dL
same,CHLORIDE,[4],108 MEQ/L
same,CHOLESTEROL,[4],63.33 mg/dL
same,CREATINE PHOSPHOKINASE,[4],106.33 u/L
same,CREATININE,[4],0.5 mg/dL
same,GLUCOSE,[4],169.67 mg/dL
same,PHOSPHORUS,[4],10.13 mg/dL
same,POTASSIUM,[4],6.4 MEQ/L
same,SODIUM,[4],152 MEQ/L
same,TOTAL PROTEIN,[4],5.67 G/DL
same,BASOPHIL,[5],0%
same,EOSINOPHIL,[5],0%
same,ERYTHROCYTE COUNT,[5],6.75 x10E6/uL
same,HEMATOCRIT,[5],40.45%
same,HEMOGLOBIN,[5],14.85 G/DL
same,LEUKOCYTE COUNT,[5],13.75 x10E3/uL
same,LYMPHOCYTE,[5],88.5%
same,MEAN CORPUSCULAR HEMOGLOBIN,[5],22.05 pg
same,MEAN CORPUSCULAR HEMOGLOBIN CONCENTRATION,[5],36.65 G/DL
same,MEAN CORPUSCULAR VOLUME,[5],59.95 fL
same,MONOCYTE,[5],0%
same,NEUTROPHIL,[5],11.5%
same,PLATELET COUNT,[5],1313.5 x10E3/uL
same,ALANINE AMINOTRANSFERASE,[5],30.33 u/L
same,ALBUMIN,[5],3.63 G/DL
same,ALKALINE PHOSPHATASE,[5],215 u/L
same,ASPARTATE AMINOTRANSFERASE,[5],58.67 u/L
same,BLOOD UREA NITROGEN,[5],11.33 mg/dL
same,CHLORIDE,[5],106.67 MEQ/L
same,CHOLESTEROL,[5],79 mg/dL
same,CREATINE PHOSPHOKINASE,[5],134.33 u/L
same,CREATININE,[5],0.5 mg/dL
same,GLUCOSE,[5],175 mg/dL
same,PHOSPHORUS,[5],11.67 mg/dL
same,POTASSIUM,[5],7.4 MEQ/L
same,SODIUM,[5],153.33 MEQ/L
same,TOTAL PROTEIN,[5],6.17 G/DL
same,BASOPHIL,[6],0%
same,EOSINOPHIL,[6],0.33%
same,ERYTHROCYTE COUNT,[6],6.63 x10E6/uL
same,HEMATOCRIT,[6],39.83%
same,HEMOGLOBIN,[6],14.4 G/DL
same,LEUKOCYTE COUNT,[6],13.93 x10E3/uL
same,LYMPHOCYTE,[6],93.67%
same,MEAN CORPUSCULAR HEMOGLOBIN,[6],21.83 pg
same,MEAN CORPUSCULAR HEMOGLOBIN CONCENTRATION,[6],36.23 G/DL
same,MEAN CORPUSCULAR VOLUME,[6],60.27 fL
same,MONOCYTE,[6],0%
same,NEUTROPHIL,[6],6%
same,PLATELET COUNT,[6],1193.67 x10E3/uL
same,ALANINE AMINOTRANSFERASE,[6],45.67 u/L
same,ALBUMIN,[6],3.47 G/DL
same,ALKALINE PHOSPHATASE,[6],280 u/L
same,ASPARTATE AMINOTRANSFERASE,[6],64.67 u/L
same,BLOOD UREA NITROGEN,[6],9.67 mg/dL
same,CHLORIDE,[6],108 MEQ/L
same,CHOLESTEROL,[6],65.67 mg/dL
same,CREATINE PHOSPHOKINASE,[6],144.33 u/L
same,CREATININE,[6],0.5 mg/dL
same,GLUCOSE,[6],162.33 mg/dL
same,PHOSPHORUS,[6],9.47 mg/dL
same,POTASSIUM,[6],6.3 MEQ/L
same,SODIUM,[6],152.67 MEQ/L
same,TOTAL PROTEIN,[6],5.8 G/DL
